US5583132A, “Sulfonylalkanoylamino hydroxyethylamino sulfamic acids useful as retroviral protease inhibitors” (priority 1995, dated 1996)

Columns and labels:
[1] = in vitro; type: cell-based; details: human, cem cells
Experimental: Methods, 20, 309-321 (1988). Assays can be performed in 96-well tissue culture plates. […] Several wells receive culture medium without virus (uninfected control cells). […] Either azidothymidine (AZT) or dideoxyinosine (ddI) is included as a positive drug control. […] DMSO is added to all control wells at an appropriate concentration. […] To each sample is added 100 μl of 10% sodium dodecylsulfate in 0.01N HCl to lyse the cells, and samples are incubated overnight.

[2] = target: T1, HIV protease (Human immunodeficiency virus type 1 group M subtype B, UniProt P04585); assay: HIV protease enzyme assay; type: biochemical
T1 construct: HIV protease is diluted in the assay buffer to a final enzyme concentration of 12.3 nanomolar, based on a molecular weight of 10,780
From the text: The compounds of the present invention are effective HIV protease inhibitors. Utilizing an enzyme assay as described below, the compounds set forth in the examples herein disclosed inhibited the HIV enzyme. The preferred compounds of the present invention and their calculated IC50 (inhibiting concentration 50%, i.e., the concentration at which the inhibitor compound reduces enzyme activity by 50%) values are shown in Table 17. The enzyme method is described below. The substrate is 2-Ile-Nle-Phe(p-NO2)-Gln-ArgNH2. The positive control is MVT-101 (Miller, M. et al, Science, 246, 1149 (1989)] The assay conditions are as follows:
20 mM sodium phosphate, pH 6.4
The above described substrate is dissolved in DMSO, then diluted 10 fold in assay buffer. Final substrate concentration in the assay is 80 μM.
HIV protease is diluted in the assay buffer to a final enzyme concentration of 12.3 nanomolar, based on a molecular weight of 10,780.
The final concentration of DMSO is 14% and the final concentration of glycerol is 18%. The test compound is dissolved in DMSO and diluted in DMSO to 10x the test concentration; 10 μl of the enzyme preparation is added, the materials mixed and then the mixture is incubated at ambient temperature for 15 minutes. The enzyme reaction is initiated by the addition of 40 μl of substrate. The increase in fluorescence is monitored at 4 time points (0, 8, 16 and 24 minutes) at ambient temperature. Each assay is carried out in duplicate wells.

Row | inhibition at 10 µM [2] [%] | SMILES | further results
1 | – | CC(C)CN(C[C@@H](O)[C@H](Cc1ccccc1)NC(=O)OCc1ccccc1)S(=O)(=O)Nc1ccccc1 [E] | CC50 at 168 h [1]: 7.5 µM
2 | – | CC(C)CN(C[C@@H](O)[C@H](Cc1ccccc1)NC(=O)[C@H](C)CS(C)(=O)=O)S(=O)(=O)NC(C)(C)C [Example 14] | IC50 ([2]; Table 9, HIV protease enzyme assay, pH 6.4, substrate 80 μM): 0.14 µM
3 | 60 | CC(C)(C)NS(=O)(=O)N(C[C@@H](O)[C@H](Cc1ccccc1)NC(=O)OCc1ccccc1)C1CCCCC1 [K] | –
4 | 38 | CC(C)CN(C[C@@H](O)[C@H](Cc1ccccc1)NC(=O)OCc1ccccc1)S(=O)(=O)NCCOCc1ccccc1 [L] | –
